Data reported in ChEMBL document CHEMBL4665654, “Design, synthesis and evaluation of antiproliferative activity of fluorinated betulinic acid” (Bioorg Med Chem, 2019).
Activity calls are given as the source filed them. No cut-off for these calls is given here.

How the values were obtained:
A549 = assay: Antiproliferative activity against human A549 cells assessed as cell growth inhibition after 72 hrs by sulforhodamine B assay; assay type: functional, cell-based; conditions: A549, 72 h
MDA-MB-231 = assay: Antiproliferative activity against human MDA-MB-231 cells assessed as cell growth inhibition after 72 hrs by sulforhodamine B assay; assay type: functional, cell-based; conditions: MDA-MB-231, 72 h
KB = assay: Antiproliferative activity against human KB cells assessed as cell growth inhibition after 72 hrs by sulforhodamine B assay; assay type: functional, cell-based
[1] = Antiproliferative activity against human KB-VIN cells assessed as cell growth inhibition after 72 hrs by sulforhodamine B assay; assay type: functional, cell-based; conditions: KBVIN
MCF7 [2] = assay: Antiproliferative activity against human MCF7 cells assessed as cell growth inhibition after 72 hrs by sulforhodamine B assay; assay type: functional, cell-based; conditions: MCF7, 72 h
MCF7 [3] = assay: Inhibition of colony formation in human MCF7 cells at 10 to 40 uM of compound exposure followed by compound washout and subsequent incubation for 3 weeks by crystal violet staining based assay; assay type: functional, cell-based; conditions: dose microM 10-40
[4] = target: T1, DNA topoisomerase 1 (Homo sapiens) (UniProt P11387); assay: Inhibition of topoisomerase 1 in human MCF7 cells nuclear extract assessed as decrease in relaxation/nicking of supercoiled DNA using supercoiled DNA as substrate at 40 uM after 1 hr by ethidium bromide staining based agarose gel electrophoresis analysis; assay type: subcellular; conditions: Nucleus
T1 sequence (whole entry): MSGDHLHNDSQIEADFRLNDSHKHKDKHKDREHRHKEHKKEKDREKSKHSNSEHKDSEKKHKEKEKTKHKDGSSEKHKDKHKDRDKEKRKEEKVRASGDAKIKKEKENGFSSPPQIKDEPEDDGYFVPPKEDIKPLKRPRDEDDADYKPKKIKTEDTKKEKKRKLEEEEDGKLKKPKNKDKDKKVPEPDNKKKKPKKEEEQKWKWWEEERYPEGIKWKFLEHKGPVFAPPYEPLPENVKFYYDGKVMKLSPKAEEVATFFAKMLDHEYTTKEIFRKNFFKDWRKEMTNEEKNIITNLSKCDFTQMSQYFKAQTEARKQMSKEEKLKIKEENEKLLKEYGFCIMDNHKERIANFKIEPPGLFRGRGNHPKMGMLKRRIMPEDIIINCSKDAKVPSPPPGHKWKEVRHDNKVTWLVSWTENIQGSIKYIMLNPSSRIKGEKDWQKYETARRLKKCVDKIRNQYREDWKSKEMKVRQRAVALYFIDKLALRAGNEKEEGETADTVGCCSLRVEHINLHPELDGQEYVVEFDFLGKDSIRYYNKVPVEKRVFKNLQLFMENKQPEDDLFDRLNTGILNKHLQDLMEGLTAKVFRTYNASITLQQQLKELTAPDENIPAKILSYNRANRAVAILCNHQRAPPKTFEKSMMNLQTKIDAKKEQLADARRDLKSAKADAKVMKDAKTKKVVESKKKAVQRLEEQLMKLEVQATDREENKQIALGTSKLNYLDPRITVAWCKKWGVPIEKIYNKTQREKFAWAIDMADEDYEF

[5] = target: DNA topoisomerase 2-alpha (Homo sapiens) (UniProt P11388); assay: Inhibition of topoisomerase-2alpha in human MCF7 cells nuclear extract assessed as decrease in relaxation/nicking of kinetoplast DNA using kDNA as substrate at 40 uM after 15 mins by ethidium bromide staining based agarose gel electrophoresis analysis; assay type: subcellular; conditions: Nucleus
Chain of DNA topoisomerase 2-alpha (Homo sapiens) (P11388 whole entry): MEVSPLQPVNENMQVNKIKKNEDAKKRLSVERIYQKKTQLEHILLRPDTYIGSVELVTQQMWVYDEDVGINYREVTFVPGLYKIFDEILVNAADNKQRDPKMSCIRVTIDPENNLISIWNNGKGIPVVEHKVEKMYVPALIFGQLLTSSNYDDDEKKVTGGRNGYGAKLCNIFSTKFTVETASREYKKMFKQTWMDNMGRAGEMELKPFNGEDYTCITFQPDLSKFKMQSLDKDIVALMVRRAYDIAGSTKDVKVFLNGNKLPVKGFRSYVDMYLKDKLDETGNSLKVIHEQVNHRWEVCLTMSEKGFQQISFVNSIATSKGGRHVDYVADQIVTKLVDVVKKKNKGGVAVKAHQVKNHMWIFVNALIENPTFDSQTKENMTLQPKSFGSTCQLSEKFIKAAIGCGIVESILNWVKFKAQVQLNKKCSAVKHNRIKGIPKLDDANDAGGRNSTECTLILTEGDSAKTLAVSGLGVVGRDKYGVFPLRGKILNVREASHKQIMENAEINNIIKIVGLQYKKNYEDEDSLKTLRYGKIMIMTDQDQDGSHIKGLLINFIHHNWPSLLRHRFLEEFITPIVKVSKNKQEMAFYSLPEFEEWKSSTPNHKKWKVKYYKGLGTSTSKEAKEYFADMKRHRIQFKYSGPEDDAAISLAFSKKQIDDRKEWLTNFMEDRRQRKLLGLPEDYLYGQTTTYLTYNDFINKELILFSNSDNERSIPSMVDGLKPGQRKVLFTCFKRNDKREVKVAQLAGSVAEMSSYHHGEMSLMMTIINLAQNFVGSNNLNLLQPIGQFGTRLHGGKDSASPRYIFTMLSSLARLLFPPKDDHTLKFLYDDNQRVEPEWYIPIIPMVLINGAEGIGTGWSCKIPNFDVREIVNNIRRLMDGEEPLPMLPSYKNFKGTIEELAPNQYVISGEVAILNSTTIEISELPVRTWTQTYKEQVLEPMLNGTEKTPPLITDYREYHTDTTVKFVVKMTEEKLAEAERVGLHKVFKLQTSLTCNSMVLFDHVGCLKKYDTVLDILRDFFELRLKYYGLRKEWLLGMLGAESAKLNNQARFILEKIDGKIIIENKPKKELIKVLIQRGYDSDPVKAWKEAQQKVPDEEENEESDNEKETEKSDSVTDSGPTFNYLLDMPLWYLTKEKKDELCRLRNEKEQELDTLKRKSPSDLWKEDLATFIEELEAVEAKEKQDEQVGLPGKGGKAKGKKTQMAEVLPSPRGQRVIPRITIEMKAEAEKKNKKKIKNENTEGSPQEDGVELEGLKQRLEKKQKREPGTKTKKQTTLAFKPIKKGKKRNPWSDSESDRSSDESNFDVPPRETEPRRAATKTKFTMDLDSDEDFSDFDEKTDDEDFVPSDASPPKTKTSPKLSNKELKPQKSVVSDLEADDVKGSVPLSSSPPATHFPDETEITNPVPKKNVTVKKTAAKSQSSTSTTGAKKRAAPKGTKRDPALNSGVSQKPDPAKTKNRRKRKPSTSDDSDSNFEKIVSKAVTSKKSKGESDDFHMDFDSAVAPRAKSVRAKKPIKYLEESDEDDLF

[6] = target: T1, DNA topoisomerase 1 (Homo sapiens); assay: Inhibition of recombinant human topoisomerase 1 assessed as decrease in relaxation/nicking of supercoiled DNA using supercoiled DNA as substrate at 10 uM after 1 hr by ethidium bromide staining based agarose gel electrophoresis analysis
[7] = target: T1, DNA topoisomerase 1 (Homo sapiens); assay: Inhibition of recombinant human topoisomerase 1 assessed as decrease in relaxation/nicking of supercoiled DNA using supercoiled DNA as substrate at 30 uM after 1 hr by ethidium bromide staining based agarose gel electrophoresis analysis
[8] = target: DNA topoisomerase 2-alpha (Homo sapiens) (UniProt P11388); assay: Inhibition of recombinant human topoisomerase-2alpha assessed as decrease in relaxation/nicking of kinetoplast DNA using kDNA as substrate at 100 uM after 15 mins by ethidium bromide staining based agarose gel electrophoresis analysis
MCF7 [9] = assay: Induction of apoptosis in human MCF7 cells at 40 uM incubated for 24 to 72 hrs by Annexin V-FITC/propidium iodide staining-based flow cytometric analysis; assay type: functional, cell-based; conditions: time hrs 24-72
MCF7 [10] = assay: Modulation of DNA replication associated gene expression in human MCF7 cells at 40 uM after 24 hrs by cDNA microarray analysis; assay type: functional, cell-based
MCF-10A = assay: Cytotoxicity against human MCF-10A cells assessed as cell viability at 10 uM after 72 hrs by MTT assay; assay type: cell-based
[11] = Cytotoxicity against human MCF-10A cells assessed as cell viability at 30 uM after 72 hrs by MTT assay; assay type: cell-based; conditions: read-out: Activity
MCF7 [12] = assay: Antiproliferative activity against human MCF7 cells assessed as cell killing at 30 uM after 72 hrs by MTT assay; assay type: functional
MCF7 [13] = assay: Induction of apoptosis in human MCF7 cells incubated for 24 to 72 hrs by Annexin V-FITC/propidium iodide staining-based flow cytometric analysis; assay type: functional, cell-based; conditions: dose microM 20-40, time hrs 24-72
MCF7 [14] = assay: Induction of apoptosis in human MCF7 cells at 20 to 40 uM by Annexin V-FITC/propidium iodide staining-based flow cytometric analysis; assay type: functional, cell-based; conditions: dose microM 20-40, time hrs 24-72, TDE = time-dependent effect
MCF7 [15] = assay: Induction of apoptosis in human MCF7 cells assessed as increase in cleaved caspase-9 protein expression at 20 to 40 uM incubated for 72 hrs by Western blot analysis; assay type: functional, cell-based; conditions: dose microM 20-40, time 72.0 hrs
MCF7 [16] = assay: Induction of apoptosis in human MCF7 cells assessed as increase in cleaved caspase-7 protein expression at 20 to 40 uM incubated for 72 hrs by Western blot analysis; assay type: functional, cell-based; conditions: dose microM 20-40, time 72.0 hrs
MCF7 [17] = assay: Induction of apoptosis in human MCF7 cells assessed as increase in cleaved PARP protein expression at 20 to 40 uM incubated for 72 hrs by Western blot analysis; assay type: functional, cell-based; conditions: dose microM 20-40, time 72.0 hrs
[18] = target: T1, DNA topoisomerase 1 (Homo sapiens); assay: Inhibition of recombinant human topoisomerase 1 assessed as decrease in relaxation/nicking of supercoiled DNA using supercoiled DNA as substrate after 1 hr by ethidium bromide staining based agarose gel electrophoresis analysis; conditions: dose microM 1-30, time 1.0 hrs
[19] = target: T1, DNA topoisomerase 1 (Homo sapiens); assay: Inhibition of recombinant human topoisomerase 1 assessed as decrease in relaxation/nicking of supercoiled DNA using supercoiled DNA as substrate at 3 uM after 1 hr by ethidium bromide staining based agarose gel electrophoresis analysis
[20] = target: DNA topoisomerase 2-alpha (Homo sapiens) (UniProt P11388); assay: Inhibition of recombinant human topoisomerase-2alpha assessed as decrease in relaxation/nicking of kinetoplast DNA using kDNA as substrate after 15 mins by ethidium bromide staining based agarose gel electrophoresis analysis; conditions: dose microM 30-100, time 15.0 min
[21] = target: DNA topoisomerase 2-alpha (Homo sapiens) (UniProt P11388); assay: Inhibition of recombinant human topoisomerase-2alpha assessed as decrease in relaxation/nicking of kinetoplast DNA using kDNA as substrate at 30 uM after 15 mins by ethidium bromide staining based agarose gel electrophoresis analysis
MCF7 [22] = assay: Modulation of DNA repair related gene expression in human MCF7 cells at 40 uM after 24 hrs by cDNA microarray analysis; assay type: functional, cell-based

Row | Compound | IC50 (A549) [µM] | IC50 (MDA-MB-231) [µM] | IC50 (KB) [µM] | IC50 [1] [µM] | IC50 (MCF7 [2]) [µM] | further results
1 | C=C(C)[C@@H]1CC[C@]2(C(=O)O)CC[C@]3(C)[C@H](CC[C@@H]4[C@@]5(C)C[C@@H](F)[C@H](O)C(C)(C)[C@@H]5CC[C@]43C)[C@@H]12 | 5.6 | 9 | 6.7 | 6.7 | 15.3 | 
2 | C=C(C)[C@@H]1CC[C@]2(C(=O)OC)CC[C@]3(C)[C@H](CC[C@@H]4[C@@]5(C)CC(F)[C@H](O)C(C)(C)[C@@H]5CC[C@]43C)[C@@H]12 (mixture of isomers) | > 10 | > 10 | > 10 | > 10 | > 10 | 
3 | CC(=O)O[C@H]1C(=O)[C@@]2(C)[C@H]([C@H](OC(=O)c3ccccc3)[C@]3(O)C[C@H](OC(=O)[C@H](O)[C@@H](NC(=O)c4ccccc4)c4ccccc4)C(C)=C1C3(C)C)[C@]1(OC(C)=O)CO[C@@H]1C[C@@H]2O [PACLITAXEL] |  |  |  | 2.9 |  | 
4 | C=C(C)[C@@H]1CC[C@]2(C(=O)OC)CC[C@]3(C)[C@H](CC[C@@H]4[C@@]5(C)CC[C@@](O)(C(F)(F)F)C(C)(C)[C@@H]5CC[C@]43C)[C@@H]12 | > 10 | > 10 | > 10 | > 10 | > 10 | 
5 | C=C(C)[C@@H]1CC[C@]2(C(=O)OC)CC[C@]3(C)[C@H](CC[C@@H]4[C@@]5(C)CC(F)C(=O)C(C)(C)[C@@H]5CC[C@]43C)[C@@H]12 (some centres not stated) | > 10 | > 10 | > 10 | > 10 | > 10 | 
6 | C=C(C)[C@@H]1CC[C@]2(C(=O)O)CC[C@]3(C)[C@H](CC[C@@H]4[C@@]5(C)CC[C@H](O)C(C)(C)[C@@H]5CC[C@]43C)[C@@H]12 [BETULINIC ACID] | 29.5 | > 40 | 28.7 | 30.7 | > 40 | inhibition (MCF7 [3]): Active; inhibition [4]: inactive; inhibition [5]: inactive; inhibition [6]: inactive; inhibition [7]: Active; inhibition [8]: inactive; Activity (MCF7 [9]): Active
7 | C=C(C)[C@@H]1CC[C@]2(C(=O)OCc3ccc(Cl)cc3)CC[C@]3(C)[C@H](CC[C@@H]4[C@@]5(C)C[C@H](F)C(=O)C(C)(C)[C@@H]5CC[C@]43C)[C@@H]12 | > 40 | > 40 | > 40 | > 40 | > 40 | 
8 | C=C(C)[C@@H]1CC[C@]2(C(=O)OCc3ccc(Cl)cc3)CC[C@]3(C)[C@H](CC[C@@H]4[C@@]5(C)CC[C@@](O)(C(F)(F)F)C(C)(C)[C@@H]5CC[C@]43C)[C@@H]12 | > 40 | > 40 | > 40 | > 40 | > 40 | 
9 | COc1cc([C@@H]2c3cc4c(cc3[C@@H](O[C@@H]3O[C@@H]5CO[C@@H](C)O[C@H]5[C@H](O)[C@H]3O)[C@H]3COC(=O)[C@H]23)OCO4)cc(OC)c1O |  |  |  |  |  | inhibition [8]: Active
10 | C=C(C)[C@@H]1CC[C@]2(C(=O)O)CC[C@]3(C)[C@H](CC[C@@H]4[C@@]5(C)CC(F)[C@H](O)C(C)(C)[C@@H]5CC[C@]43C)[C@@H]12 (mixture of isomers) | 6.1 | 11 | 6.5 | 7 | 9.2 | Activity (MCF7 [10]): Active; Activity (MCF-10A): Non-Toxic; viability at 72 h, 30 µM [11]: 80%; Activity (MCF7 [12]): >80%; inhibition (MCF7 [3]): Active; Activity (MCF7 [13]): Dose-dependent effect; Activity (MCF7 [14]): Tde; Activity (MCF7 [15]): Active; Activity (MCF7 [16]): Active; Activity (MCF7 [17]): Active; inhibition [4]: Active; inhibition [5]: Active; inhibition [6]: Active; inhibition [18]: Dose-dependent effect; inhibition [19]: Active; inhibition [20]: Dose-dependent effect; inhibition [21]: Active; Activity (MCF7 [22]): Active
11 | C=C(C)[C@@H]1CC[C@]2(C(=O)O)CC[C@]3(C)[C@H](CC[C@@H]4[C@@]5(C)C[C@H](F)[C@H](O)C(C)(C)[C@@H]5CC[C@]43C)[C@@H]12 | 4.5 | 12.4 | 6.1 | 6 | 14.4 | 
12 | C=C(C)[C@@H]1CC[C@]2(C(=O)O)CC[C@]3(C)[C@H](CC[C@@H]4[C@@]5(C)CC[C@@](O)(C(F)(F)F)C(C)(C)[C@@H]5CC[C@]43C)[C@@H]12 | 5.4 | > 10 | 5.9 | 6 | 7.8 | 
13 | C=C(C)[C@@H]1CC[C@]2(C(=O)OCc3ccc(Cl)cc3)CC[C@]3(C)[C@H](CC[C@@H]4[C@@]5(C)CCC(=O)C(C)(C)[C@@H]5CC[C@]43C)[C@@H]12 | > 40 | > 40 | > 40 | > 40 | > 40 | 
14 | C=C(C)[C@@H]1CC[C@]2(C(=O)OC)CC[C@]3(C)[C@H](CC[C@@H]4[C@@]5(C)CC(F)[C@H](OC(=O)CC(C)(C)C(=O)O)C(C)(C)[C@@H]5CC[C@]43C)[C@@H]12 (some centres not stated) | > 10 | > 10 | > 10 | > 10 | > 10 | 
15 | C=C(C)[C@@H]1CC[C@]2(C(=O)O)CC[C@]3(C)[C@H](CC[C@@H]4[C@@]5(C)CC(F)[C@H](OC(=O)CC(C)(C)C(=O)O)C(C)(C)[C@@H]5CC[C@]43C)[C@@H]12 (some centres not stated) | > 10 | > 10 | > 10 | > 10 | > 10 | 
16 | C=C(C)[C@@H]1CC[C@]2(C(=O)OCc3ccc(Cl)cc3)CC[C@]3(C)[C@H](CC[C@@H]4[C@@]5(C)C[C@@H](F)C(=O)C(C)(C)[C@@H]5CC[C@]43C)[C@@H]12 | > 40 | > 40 | > 40 | > 40 | > 40 | 
